Assays:
[1] = system: mice treated with peptide Aβ25-35; experiment: In vivo screening of derivatives as neuroprotectors (spontaneous alternation, passive avoidance, ROS level), Aβ25-35 model
Experimental: FIG. 7: Screening of phosphinolactones as neuroprotectors in mice treated with peptide Aβ25-35: (a) spontaneous alternation; (b) passive avoidance step-through latency; (c) Levels of reactive oxygen species in hippocampus. The mice were given compound 3b (0.3, 0.7 mg/kg IP) or a dose of each compound (0.3 mg/kg IP) 20 min before I′Aβ25-35 or the control peptide Sc.Aβ (9 nmol ICV). The animals were tested in the Y-maze on Day 7 after the ICV injections and for passive avoidance on Days 8-9, and then sacrificed. In each graph at (a-c), the 50% protection level compared with the deficit induced by Aβ25-35 is plotted as a dotted line. It is to be noted that at (a), the column represents the median and the error bars represent the deviations 25%-75% (=asymmetric deviations). n=12 at (a, b) and 5-6 at (c). ANOVA on groups 1-4: F(3.63)=7.95, p<0.001 at (b); H=24.1, p<0.0001 at (c); F(3.44)=6.33, p<0.01 at (d). *p<0.05, **p<0.01, ***p<0.001 compared with group (Sc.Aβ+V); #p<0.05, ##p<0.01, ###p<0.001 compared with group (Aβ25-35+V); Dunnett test at (a, c) and Dunn at (b). The values of the groups 5-12 (screened compounds) were analysed by t-test at (a, c) or Mann-Whitney at (b).
From the molecules derived from the synthesis, a panel of 8 derivatives was selected and screened for potential neuroprotective efficacy. The compounds were injected at a dose of 0.3 mg/kg IP, i.e. the maximum non-active dose of 3b and compared with 3b injected at 0.3 and 0.7 mg/kg IP. The compounds were injected […] before the Aß25-35 peptide, and the mice were tested for spontaneous alternation on Day 7, passive avoidance on Days 8 and 9 and the ROS level was measured in the hippocampus (FIG. 7). For each response (spontaneous alternation: FIG. 7a; step-through latency in passive avoidance: FIG. 7b, and DCF fluorescence level: FIG. 7c), a 50% level of the effect between the values of the ScAß and Aß25-35 animals was taken as criterion of efficacy. […] Compound 3c is an isomer at the position of the chlorine atom of 3b. Regarding compound 3n, this has a 5-pyrimidyl group attached to the phosphorus atom, and for compound 3l it is a 4-pyridinyl group.

APPSwe mice = experiment: Spontaneous alternation in Y-maze, transgenic APPSwe mice, chronic treatment; type: in vivo; conditions: for alternation deficit of APPSwe animals: 1 mg/kg/d
Experimental: FIG. 8: Spontaneous alternation (a, b) and total number of arm entries (c, d) of APPSwe mice given compound 3b, in the Y-maze, after treatment of one month (a, c) and 2 months (b, d). The animals were given compound 3b (0.7 or 2 mg/kg IP) 3 times per week for 1 or 2 months. N=6-15 per group. ANOVA: F(5.49)=3.84, p<0.01 at (a); F(5.54)=1.54, p>0.05 at (b); F<1 at (c) et (d). *p<0.05, **p<0.01 compared with group (WT+V); #p<0.05 compared with group (APPSwe+V); Dunnett test at (a, b).
FIG. 10: Spontaneous alternation (a, b) and number of arm entries (c, d) for APPSwe mice treated with compound 3c, in the Y-maze, after treatment for 1 month (a, c) or 2 months (b, d). The animals were given compound 3c (1 mg/kg IP) 3 times per week for 1 or 2 months. N=10-13 per group. ANOVA: F(3.45)=3.61, p<0.05 at (a); F(3.38)=6.33, p<0.01 at (b); F<1 at (c) and (d). *p<0.05, ***p<0.001 compared with group WT/V; #p<0.05 compared with group APPSwe/V; Dunnett test at (a, b).
The animals were tested for spontaneous alternation performance in a Y-maze, an index of spatial working memory. The Y-maze was in grey PVC. Each arm was 40 cm long, 13 cm high, 3 cm wide at the base and 10 cm wide in the upper part, and converging at an equal angle. Each mouse was placed at one end of an arm and was able to move freely through the maze during an 8-min session. The series of arm entries, including any returns in the same arm were visually analysed. Alternation is defined as being consecutive entries in three different arms. The maximum number of alternations is therefore the total number of arm entries less two, and alternation percentage is calculated as (actual alternations/maximum possible alternations)×100. The parameters comprise the alternation percentage (memory index) and the total number of arm entries (exploratory index).
TG2576 mice, over-expressing the human amyloid precursor protein carrying the Swedish double mutation APPSwe, develop the pathology towards the age of 8-10 months and up until 15-17 months, age at which 95% of the animals show behavioural, biochemical and morphological signs of the disease. Compound 3b was administered under chronic treatment at doses of 0.7 mg/kg/d IP and then 2 mg/kg/d IP. The effect of compound 3c, at a dose of 1 mg/kg/j IP, was also documented.

Structure (SMILES) | maximum non-active dose of 3b ([1]; IP) [mg/kg] | alternation in the WT animals (APPSwe mice; lowest dose (0.7 mg/kg/d), 2 months) | spontaneous alternation performance of wild-type control animals (APPSwe mice; treatment for one month, 0.7 or 2 mg/kg IP) | criterion of efficacy: 50% level of the effect between ScAβ and Aβ25-35 animals (spontaneous alternation, step-through latency, DCF fluorescence) ([1]; 0.3 mg/kg IP) | efficacy compared with 3b ([1]; Aβ25-35 model) | efficiency in the screening of the molecules in the series ([1]; Aβ25-35 model) | alternation deficit of APPSwe animals (APPSwe mice; 1 month) | alternation deficit of APPSwe animals (APPSwe mice; 2 months)
CC1(C)COP(=O)(c2cccc(Cl)c2)C(C)(C)N1 (racemic) [Compound 3b, (±)-2-(3-Chlorophenyl)-2-oxo-3,3,5,5-tetramethyl-[1,4,2]-oxazaphosphinane] | 0.3 | appears to impact alternation | does not affect the performance | – | – | – | – | –
CC1(C)COP(=O)(c2ccc(Cl)cc2)C(C)(C)N1 (racemic) [Compound 3c, (±)-2-(4-Chlorophenyl)-2-oxo-3,3,5,5-tetramethyl-[1,4,2]-oxazaphosphinane] | – | – | – | met the criterion for the 3 parameters | as effective at 0.3 mg/kg IP as 3b at 0.7 mg/kg IP | highly efficient | attenuated | significantly blocked

Reference: patent US10947260B2, “Phosphinolactone derivatives and pharmaceutical uses thereof” (INSTITUT NATIONAL DE LA SANTE ET DE LA RECHERCHE MEDICALE …, priority 2016, dated 2021)
